Measured values from PubChem BioAssay AID2060885 (Molecular Pharmacology Branch, DTP, NCI, 2025).

Tested on: NCI-H23 complex spheroids with HUVEC/MSC, viability
Experiment: Anticancer human tumor NCI-H23 cell line growth inhibition [RAS];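 further: spheroids exposed to compound for 7 days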;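 on viability, T/C: 100% = DMSO vehicle control viability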
Settings: for IC50: curve of first compound; for viability, T/C: stronger effect = lower value; active means viability on the fitted dose curve at most 10% of control; inactive means the rest
Method in brief: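 Multi-cell-type spheroids: tumor cells plus HUVEC endothelial cells and mesenchymal stem cells. RAS-pathway inhibitors were combined with targeted agents, each dosed in half-log steps down from clinical Cmax, or from 10 microM when Cmax was unknown.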

[1] = second compound 0.000949 µM, first compound 0.0316 µM
[2] = second compound 0.000949 µM, first compound 0.1 µM
[3] = second compound 0.000949 µM, first compound 0.316 µM
[4] = second compound 0.000949 µM, first compound 1 µM
[5] = second compound 0.000949 µM, first compound 3.16 µM
[6] = second compound 0.000949 µM, first compound 10 µM
[7] = second compound 0.003 µM, first compound 0.0316 µM
[8] = second compound 0.003 µM, first compound 0.1 µM
[9] = second compound 0.003 µM, first compound 0.316 µM
[10] = second compound 0.003 µM, first compound 1 µM
[11] = second compound 0.003 µM, first compound 3.16 µM
[12] = second compound 0.003 µM, first compound 10 µM
[13] = second compound 0.00949 µM, first compound 0.0316 µM
[14] = second compound 0.00949 µM, first compound 0.1 µM
[15] = second compound 0.00949 µM, first compound 0.316 µM
[16] = second compound 0.00949 µM, first compound 1 µM
[17] = second compound 0.00949 µM, first compound 3.16 µM
[18] = second compound 0.00949 µM, first compound 10 µM
[19] = second compound 0.03 µM, first compound 0.0316 µM
[20] = second compound 0.03 µM, first compound 0.1 µM
[21] = second compound 0.03 µM, first compound 0.316 µM
[22] = second compound 0.03 µM, first compound 1 µM
[23] = second compound 0.03 µM, first compound 3.16 µM
[24] = second compound 0.03 µM, first compound 10 µM
[25] = second compound 0.0949 µM, first compound 0.0316 µM
[26] = second compound 0.0949 µM, first compound 0.1 µM
[27] = second compound 0.0949 µM, first compound 0.316 µM
[28] = second compound 0.0949 µM, first compound 1 µM
[29] = second compound 0.0949 µM, first compound 3.16 µM
[30] = second compound 0.0949 µM, first compound 10 µM
[31] = second compound 0.3 µM, first compound 0.0316 µM
[32] = second compound 0.3 µM, first compound 0.1 µM
[33] = second compound 0.3 µM, first compound 0.316 µM
[34] = second compound 0.3 µM, first compound 1 µM
[35] = second compound 0.3 µM, first compound 3.16 µM
[36] = second compound 0.3 µM, first compound 10 µM

CC(C)NCC(C(=O)N1CCN(c2ncnc3c2C(C)CC3O)CC1)c1ccc(Cl)cc1 (stereo not drawn) + CCn1c(-c2cc(N3CCN(C)CC3)cnc2C(C)OC)c2c3cc(ccc31)-c1csc(n1)CC(NC(=O)C1CC1C)C(=O)N1CCCC(N1)C(=O)OCC(C)(C)C2
inactive: viability, T/C [1] 44% | viability, T/C [2] 47.4% | viability, T/C [3] 32.9% | viability, T/C [4] 34.7% | viability, T/C [5] 26.2% | viability, T/C [6] 15.2% | viability, T/C [7] 37.9% | viability, T/C [8] 27.3% | viability, T/C [9] 24.2% | viability, T/C [10] 22.6% | viability, T/C [11] 22% | viability, T/C [12] 13.8% | viability, T/C [13] 30.8% | viability, T/C [14] 31.7% | viability, T/C [15] 30.4% | viability, T/C [16] 22.2% | viability, T/C [17] 17.1% | viability, T/C [18] 10.4% | viability, T/C [19] 29.5% | viability, T/C [20] 23.8% | viability, T/C [21] 21.5% | viability, T/C [22] 19.6% | viability, T/C [23] 12.1% | viability, T/C [24] 12.1% | viability, T/C [25] 18.6% | viability, T/C [26] 18.6% | viability, T/C [27] 17.8% | viability, T/C [28] 17.4% | viability, T/C [29] 10.3% | viability, T/C [30] 9.96% | viability, T/C [31] 18.1% | viability, T/C [32] 15.7% | viability, T/C [33] 14.9% | viability, T/C [34] 10.6% | viability, T/C [35] 9.62%
active: viability, T/C [36] 9.02%
< 31.6 nM: IC50 (second compound 0.000949 µM) | IC50 (second compound 0.003 µM) | IC50 (second compound 0.00949 µM) | IC50 (second compound 0.03 µM) | IC50 (second compound 0.0949 µM) | IC50 (second compound 0.3 µM)

CC(C)n1nc(-c2ccc3oc(N)nc3c2)c2c(N)ncnc21 + CCn1c(-c2cc(N3CCN(C)CC3)cnc2C(C)OC)c2c3cc(ccc31)-c1csc(n1)CC(NC(=O)C1CC1C)C(=O)N1CCCC(N1)C(=O)OCC(C)(C)C2
inactive: viability, T/C (second compound 0.000949 µM, first compound 0.000316 µM) 44.2% | viability, T/C (second compound 0.000949 µM, first compound 0.001 µM) 41.7% | viability, T/C (second compound 0.000949 µM, first compound 0.00316 µM) 24.1% | viability, T/C (second compound 0.000949 µM, first compound 0.01 µM) 30% | viability, T/C [1] 24.2% | viability, T/C [2] 13.5% | viability, T/C (second compound 0.003 µM, first compound 0.000316 µM) 32.4% | viability, T/C (second compound 0.003 µM, first compound 0.001 µM) 24.6% | viability, T/C (second compound 0.003 µM, first compound 0.00316 µM) 25.8% | viability, T/C (second compound 0.003 µM, first compound 0.01 µM) 21.6% | viability, T/C [7] 19% | viability, T/C [8] 9.18% | viability, T/C (second compound 0.00949 µM, first compound 0.000316 µM) 31.2% | viability, T/C (second compound 0.00949 µM, first compound 0.001 µM) 26.8% | viability, T/C (second compound 0.00949 µM, first compound 0.00316 µM) 24.1% | viability, T/C (second compound 0.00949 µM, first compound 0.01 µM) 20% | viability, T/C [13] 16.4% | viability, T/C [14] 11.4% | viability, T/C (second compound 0.03 µM, first compound 0.000316 µM) 24.5% | viability, T/C (second compound 0.03 µM, first compound 0.001 µM) 25.2% | viability, T/C (second compound 0.03 µM, first compound 0.00316 µM) 22.7% | viability, T/C (second compound 0.03 µM, first compound 0.01 µM) 19% | viability, T/C [19] 11.7% | viability, T/C [20] 11.6% | viability, T/C (second compound 0.0949 µM, first compound 0.000316 µM) 19.2% | viability, T/C (second compound 0.0949 µM, first compound 0.001 µM) 19.4% | viability, T/C (second compound 0.0949 µM, first compound 0.00316 µM) 19.2% | viability, T/C (second compound 0.0949 µM, first compound 0.01 µM) 16.6% | viability, T/C [25] 9.51% | viability, T/C [26] 11.2% | viability, T/C (second compound 0.3 µM, first compound 0.000316 µM) 17.9% | viability, T/C (second compound 0.3 µM, first compound 0.001 µM) 17% | viability, T/C (second compound 0.3 µM, first compound 0.00316 µM) 16.4% | viability, T/C (second compound 0.3 µM, first compound 0.01 µM) 13.4% | viability, T/C [31] 13.5% | viability, T/C [32] 11.5%
< 0.316 nM: IC50 (second compound 0.000949 µM) | IC50 (second compound 0.003 µM) | IC50 (second compound 0.00949 µM) | IC50 (second compound 0.03 µM) | IC50 (second compound 0.0949 µM) | IC50 (second compound 0.3 µM)

CC(Nc1ccc2c(c1)OCCn1cc(N3C(=O)OCC3C(F)F)nc1-2)C(N)=O (stereo not drawn) + CCn1c(-c2cc(N3CCN(C)CC3)cnc2C(C)OC)c2c3cc(ccc31)-c1csc(n1)CC(NC(=O)C1CC1C)C(=O)N1CCCC(N1)C(=O)OCC(C)(C)C2
inactive: viability, T/C [1] 38.9% | viability, T/C [2] 34.7% | viability, T/C [3] 29.4% | viability, T/C [4] 35.1% | viability, T/C [5] 33.6% | viability, T/C [6] 21.6% | viability, T/C [7] 34.9% | viability, T/C [8] 24.6% | viability, T/C [9] 25.3% | viability, T/C [10] 25.1% | viability, T/C [11] 23.1% | viability, T/C [12] 17.6% | viability, T/C [13] 31.1% | viability, T/C [14] 24.5% | viability, T/C [15] 21.1% | viability, T/C [16] 22.5% | viability, T/C [17] 23.3% | viability, T/C [18] 16.7% | viability, T/C [19] 25.5% | viability, T/C [20] 19.6% | viability, T/C [21] 19% | viability, T/C [22] 19.2% | viability, T/C [23] 13.9% | viability, T/C [24] 14.5% | viability, T/C [25] 16.9% | viability, T/C [26] 14.9% | viability, T/C [27] 13.6% | viability, T/C [28] 15.2% | viability, T/C [29] 10% | viability, T/C [30] 10.8% | viability, T/C [31] 14% | viability, T/C [32] 13.3% | viability, T/C [33] 12.8% | viability, T/C [34] 13% | viability, T/C [35] 11.9% | viability, T/C [36] 11.4%
< 31.6 nM: IC50 (second compound 0.000949 µM) | IC50 (second compound 0.003 µM) | IC50 (second compound 0.00949 µM) | IC50 (second compound 0.03 µM) | IC50 (second compound 0.0949 µM) | IC50 (second compound 0.3 µM)

C[C@@H](NC(=O)c1ncnc(N)c1Cl)c1ncc(C(=O)Nc2cc(C(F)(F)F)c(Cl)cn2)s1 + CCn1c(-c2cc(N3CCN(C)CC3)cnc2C(C)OC)c2c3cc(ccc31)-c1csc(n1)CC(NC(=O)C1CC1C)C(=O)N1CCCC(N1)C(=O)OCC(C)(C)C2
< 31.6 nM: IC50 (second compound 0.003 µM) | IC50 (second compound 0.00949 µM) | IC50 (second compound 0.03 µM) | IC50 (second compound 0.0949 µM) | IC50 (second compound 0.3 µM)
inactive: viability, T/C [1] 51.5% | viability, T/C [2] 54.4% | viability, T/C [3] 46.1% | viability, T/C [4] 48.4% | viability, T/C [5] 49.9% | viability, T/C [6] 25% | viability, T/C [7] 39.7% | viability, T/C [8] 33% | viability, T/C [9] 33.9% | viability, T/C [10] 37.2% | viability, T/C [11] 38.5% | viability, T/C [12] 24.6% | viability, T/C [13] 35.3% | viability, T/C [14] 29.5% | viability, T/C [15] 32.5% | viability, T/C [16] 32.8% | viability, T/C [17] 31.7% | viability, T/C [18] 27% | viability, T/C [19] 29.4% | viability, T/C [20] 27.8% | viability, T/C [21] 31.3% | viability, T/C [22] 30.7% | viability, T/C [23] 29.3% | viability, T/C [24] 25.2% | viability, T/C [25] 21.1% | viability, T/C [26] 22.3% | viability, T/C [27] 26.3% | viability, T/C [28] 28.4% | viability, T/C [29] 21.8% | viability, T/C [30] 24.2% | viability, T/C [31] 22.6% | viability, T/C [32] 24.4% | viability, T/C [33] 24.2% | viability, T/C [34] 22.7% | viability, T/C [35] 25.4% | viability, T/C [36] 21.9%
1530 nM: IC50 (second compound 0.000949 µM)
